Measurements as given in patent US8383618B2, “C2-fluoro substituted piperazine linked pyrrolo[2,1-C][1,4] benzodiazepine dimers and a process for the preparation thereof” (Council of Scientific & Industrial Research, priority 2008, dated 2013).

Test system: calf thymus (CT) DNA
Assay: Thermal denaturation studies
Format: binding
Settings: [PBD]:[DNA] molar ratio 1:5; CT-DNA 100 μM, ligand 20 μM; sodium phosphate buffer pH 7.00
Experimental: The DNA binding affinity of the C2-Fluoro substituted piperazine linked pyrrolo[2,1c][1,4]benzodiazepine dimers were subjected to thermal denaturation studies using calf thymus (CT) DNA (Jones, G. B.; Davey, C. L.; Jenkins, T. C.; Kamal, A.; Kneale, G. G.; Neidle, S.; Webster, G. D.; Thurston, D. E. Anti-cancer Drug Des. 1990, 5, 249. McConnaughie, A. W.; Jenkins, T. C. J. Med. Chem. 1995, 38, 3488). The studies for these compounds (IXa-f) were carried out by DNA/ligand molar ratio is 1:5 the increase in the helix melting temperature (ΔTm) for each compound was examined at 0 h. […] Data for DSB-120 and SJG-136 are included in Table-3 for comparison. The synthetic DC-81 dimer (DSB-120) gives a ΔTm 10.2° C. and SJC-136 gives a […]Tm of 25° C. under identical experimental condition.

| Molecule | ΔTm after incubation at 37° C. for 0 h [°C] |
| --- | --- |
| COc1cc2c(cc1OCCCCN1CCN(CCCCOc3cc4c(cc3OC)C(=O)N3CC(F)(F)C[C@H]3C=N4)CC1)N=C[C@@H]1CC(F)(F)CN1C2=O [IXe, 1,1′-{[(bisbutane-1,N-diyl)piperazine]dioxy}bis[(11aS)-2-2-difluoro-7-methoxy-1,2,3,11a-tetrahydro-5H-pyrrolo[2,1-c][1,4]benzodiazepine-5-one]] | 14.0 |
| COc1cc2c(cc1OCCCOc1cc3c(cc1OC)C(=O)N1CCC[C@H]1C=N3)N=C[C@@H]1CCCN1C2=O [DSB-120, reference compound] | 10.2 |
| COc1cc2c(cc1OCCCCCN1CCN(CCCCCOc3cc4c(cc3OC)C(=O)N3CC(F)(F)C[C@H]3C=N4)CC1)N=C[C@@H]1CC(F)(F)CN1C2=O [IXf, 1,1′-{[(bispentane-1,N-diyl)piperazine]dioxy}bis[(11aS)-2-2-difluoro-7-methoxy-1,2,3,11a-tetrahydro-5H-pyrrolo[2,1-c][1,4]benzodiazepine-5-one]] | 13.0 |
| 1,1′-{[(bispentane-1,N-diyl)piperazine]dioxy}bis[(11aS)-2-fluoro-7-methoxy-1,2,3,11a-tetrahydro-5H-pyrrolo[2,1-c][1,4]benzodiazepine-5-one] [IXc] | 37.0 |
